In patent US20130085105A1, “Transdermal Administration Of Peptides” (The Provost, Fellows and Scholars of the College of Holy …, priority 2010, published 2013):

What was measured:
[1] = Solubility of somatostatin fatty-acid salts; format: physicochemical; details: 24 hours
Experimental: The solubilities of Compound A and Compound B oleate were determined in deionized water, phosphate-buffered saline (PBS; pH 7.4) and n-octanol. Analysis was carried out by placing an excess of each salt with 1 ml of the selected solvent into four 4 ml sealed HPLC vials. The samples were allowed to equilibrate at 37° C. for 24 hours with shaking. Each of the four dispersions was then filtered through a 0.2 μm nylon membrane (Pall Gelman, Ann Arbor, Mich., U.S.A.). Prior to HPLC analysis, the n-octanol samples were diluted 1:100 with methanol and the PBS and deionized water samples were diluted 1:10 in de-ionized water. Table 7 lists the solubilities of Compound A and Compound B oleate salts in deionized water, PBS and n-octanol.

[2] = In vitro transdermal permeation, diffusion cell, hairless mouse skin; format: in vitro ADME, hairless mice
Description: The abdominal skin from male hairless mice (mice of the HRS strain carrying a mutant Hr gene (hr/hr)) aged 6-8 weeks was cleaned of any subcutaneous fat with blood vessels while maintaining the integrity of the viable epidermis and SC. The excised skin was used immediately after preparation and was not stored prior to use.
A custom made finite dosing diffusion cell (AGB Scientific, Dublin, Ireland, FIG. 1) based upon and modified from the Keshary-Chien type diffusion cell was used for in vitro permeation studies.
Three to five diffusion cells were used in each permeation experiment and monitoring was performed over a 48 hour period. The cells were linked in series to a thermostatically controlled circulation bath set at 35° C. to mimic human skin surface temperature. Each cell was placed on a stir-plate set at a defined stirring rate of 1,000 rpm. The surface area for permeation provided by each cell was 3.14 cm^2.
Data collected from each permeation study included:
1) the average maximum flux obtained in 48 hours (Jmax),
2) the total absorption characterized as the total weight of peptide delivered transdermally into the receiver compartment over a 48 hour period,
3) the lag time to detectable flux which was equivalent to the latest sampling time at which no peptide was detectable by HPLC analysis of the receiver solution, and
4) an equivalent 48-hour steady state flux was determined by obtaining the slope of the best-fit line for a plot of cumulative flux per unit area versus time (described by McDaid, D. M. et al., Int. J. Pharm., 133:71-83, 1996).
Fresh hairless mouse skin samples or fresh or freshly thawed pig skin samples were mounted onto the diffusion cell with the SC topmost and in contact with the donor system. A rubber or plastic ring was placed on top of the skin sample to secure it in position. The combination of the diffusion cell top, the skin and the rubber ring was securely fastened together by means of a threaded cap. A recorded volume of receiver solution was added to the receiver compartment and maintained at 35° C. The receiver solution was 60/40 (v/v) PBS/propylene glycol (pH 7.1). The propylene glycol fraction was used to increase the solubility of the somatostatin-fatty acid salts. Previous work reported by Morgan et al. (J. Pharm. Sci., 87:1213-1218, 1998) has shown that a 50/50 water/propylene glycol receptor solution had no detrimental effect on the barrier integrity of both hairless mouse and porcine skin.
The receiver solution was allowed to equilibrate at 35° C. for 30 minutes. […] A narrow-bore hypodermic needle was used to withdraw 1 ml samples from the receiver compartment via the sampling port; at each sampling time, an equal volume of drug-free receiver solution was immediately added back to the receiver compartment. Samples were analyzed by HPLC.
HPLC determination of peptide content in the receiver solution along with the known surface area of skin used (3.14 cm^2) allowed for calculation of transdermal flux (in units of μg/cm^2/hr) for each time point. Panels 1 and 2 of FIG. 2 show flux […] profiles for the myristate, octanoate, decanoate, linoleate, nonanote, acetate and laurate […]
Once lead candidate somatostatin-fatty acid salts had been selected on the basis of in vitro permeation in a DMSO solution, the effect of different solvents and penetration enhancers on permeation was assessed. The concentration of the donor solution corresponded to 5 mg/ml free base peptide for all experiments and all donor solutions were equilibrated at 37° C. for one hour prior to use. These experiments were carried out using hairless mouse skin and pigskin barriers.

[3] = Prediction of permeability coefficient Kp and human steady-state plasma level
Description: A further approach to estimating human plasma levels following transdermal administration was outlined by Howes et al. (ATLA, 24:81-106, 1996) and was based on a mass balance approach whereby the input and output quantities of drug are considered equal. Rewriting “input=output” for transdermal systems gives:
A×Kp×Cappl=CL×Cp Eqn. 10.6
where A is the area of application, Kp is the permeability coefficient of the drug through the skin, Cappl is the applied concentration, CL is the plasma clearance and Cp is the steady-state plasma concentration of the drug. Rearranging the equation to estimate Cp gives: […]
A number of methods for determining Kp based on the lipophilicity and molecular weight of the drug in question are available. Potts and Guy (Pharm. Res., 9:663-669, 1992) found the following relationship:
Another method of calculating Kp which makes use of in vitro data is described by Hewitt et al. (In vitro cutaneous disposition of a topical diclofenac lotion in human skin: Effect of a multidose regimen, in Percutaneous Absorption, Bronaugh, R. L. and Maibach, H. I. (Eds.), Marcel Dekker Inc., New York, 1999):
Kp(cm/h)=absorption(μg)/[area×concentration(μg/cm^3)×time] Eqn. 10.11
Values for Kp were calculated using Eqns. 10.9 and 10.10 using the MW value for Compound B di-oleate (1,767 g/mol) and its previously determined KOW value (340.43). Additionally, Eqn. […]

[4] = donor 55% EtOH 40% Water 5% Cineole, 5 mg/ml free base peptide
[5] = donor 55/45 (v/v) EtOH/H2O, approx. 5 mg/ml free base peptide
[6] = donor DMSO, approx. 5 mg/ml free base peptide (4.9 mg/ml Compound A oleate, 5.2 mg/ml Compound A acetate)
[7] = donor DMSO, approx. 5 mg/ml free base peptide (4.9 mg/ml Compound A oleate, 5.2 mg/ml Compound A acetate), 48 hr

With “[4-(2-hydroxyethyl)]-1-piperazinylacetyl-D-Phe-c(Cys-Tyr-D-Trp-Lys-Abu-Cys)-Thr-NH2 [Compound B di-oleate]” as the substance, how does the “Solubility PBS” value ([1]; PBS pH 7.4, 37° C.) read?
The value was 1302 µg/mL.

What about the “Solubility DI H2O” value ([1]; deionized water, 37° C.) of the same substance?
Its value is 50 µg/mL.

And the “Solubility n-Octanol” value ([1]; n-octanol, 37° C.)?
The value was 136900 µg/mL.

And the “increase in total peptide flux over 48 hours due to cineole” value ([2]; 55/40/5 ethanol/water/cineole vs 55/45 ethanol/water)?
The value was 19.26%.

And the Jmax [2, 4]?
The Jmax was 39.838 μg/cm^2/hr.

And the Jss [2, 4]?
Its Jss is 24.075 μg/cm^2/hr.

And the “Lag Time” value [2, 4]?
The value was 1 h.

What about the “Total Absorption” value [2, 4] of the same substance?
The value was 3,279.62 μg/48 hr.

What about the Jmax [2, 5] of the same substance?
Its Jmax is 32.902 μg/cm^2/hr.

What about the Jss [2, 5] of the same substance?
Its Jss is 20.264 μg/cm^2/hr.

What about the “Lag Time” value [2, 5] of the same substance?
Its value is 1 h.

What about the “Total Absorption” value [2, 5] of the same substance?
Its value is 2,750.01 μg/48 hr.

And the “Lag Time” value [2, 6]?
The value was 1 h.

And the “Total Absorption” value [2, 6]?
Its value is 814.86 μg/48 hr.

What about the Jmax [2, 7] of the same substance?
Its Jmax is 21.407 μg/cm^2/hr.

And the Jss [2, 7]?
Its Jss is 5.158 μg/cm^2/hr.

What about the “flux profile in DMSO compared with other salts” value ([2]; vs myristate, octanoate, decanoate, linoleate, nonanoate, acetate, laurate salts of Compound A and acetate of Compound B) of the same substance?
Its value is “far exceeded”.

What about the “Kp Value Obtained” value ([3]; Eqn. 10.11 from in vitro absorption across pig epidermis, optimized donor vehicle) of the same substance?
The value was 0.0003476 cm/h.

And the “steady-state plasma level (Cp)” value ([3]; predicted for human, Eqn. 10.8 with Kp of Eqn. 10.11, area 20 cm^2, 5 mg/cm^3 applied)?
Its value is 1.6998 ng/mL.
